Tests used:
human NCX1 = target: T1, human NCX1 (Homo sapiens, UniProt P32418); test: NCX1 inhibition, forward mode (Ca2+ efflux out of cells), FLIPR calcium assay; type: cell-based; details: CHO cells stably expressing human NCX1, read-out: NCX1fw IC50
T1 construct: expressed in transfected cells
Text: The sodium/calcium exchanger NCX1 can transport calcium ions and sodium ions through the cell membrane. The transport is an exchange of Ca^2+ and Na^+ in two directions depending on membrane potential and ion gradients. At the first direction, named “forward mode” or “calcium export mode”, Ca^2+ is transported out of the cell and Na^+ is transported into the cell. At the other direction, named “reverse mode” or “calcium import mode”, the transport directions are vice versa. The effect of the compounds of the invention on NCX1 was determined in CHO cells stably expressing human NCX1 (gene symbol SLC8A1; cf. WO 2009/115238). The assay is based on the monitoring of intracellular Ca^2+ concentrations using a calcium-sensitive fluorescence dye which is detected by means of a FLIPR device (Fluorimetric Imaging Plate Reader, Molecular Devices).
The assay is based on the monitoring of intracellular Ca^2+ concentrations using the PBX Calcium Assay Kit from BD (Becton, Dickinson and Company) with calcium indicator dye 51-9000177BKa (BD, 640177). CHO cells expressing NCX1 were loaded with the dye, and after a preincubation period with the test compound, Ionomycin (Calbiochem, 407950) was added. Ionomycin is an ionophor for Ca^2+ ions mediating an increase of intracellular Ca^2+ ions. Consequently, intracellular Ca^2+ ions are exchanged against extracellular Na^+ ions (Ca^2+ efflux, forward mode). The decrease of intracellular Ca^2+ ions was detected by measuring the fluorescence of the calcium indicator dye at a wavelength of 520 nm by a FLIPR device.
Briefly, similarly as for the reverse mode, for the forward mode transport assay 18000 cells per well were seeded into a 96 well microplate (Corning COSTAR 3904) and incubated overnight in culture medium (cf. above). A total volume of 100 μl medium per well was used. For the preparation of the FLIPR assay, the culture medium was removed from the plates and 100 μl of assay buffer (133.8 mM NaCl (Sigma, S5886); 4.7 mM KCl (Sigma, P3911); 1.25 mM MgCl2 (Merck, 1.05833.0250); 3.5 mM CaCl2(Merck, 1.02083.0250); 5 mM glucose (Sigma, G7021); 10 mM Hepes (Sigma, H4034); pH 7.4)) were added to each well in a washing step. Assay buffer was removed, and 100 μl of a solution of the test compound in assay buffer in different concentrations were added into the wells. Further, 100 μl of dye solution (0.09% (v/v) calcium indicator dye, 9.1% (v/v) signal enhancer (from PBX Calcium Assay Kit); in assay buffer) were added into each well. The plates were incubated in the dark at room temperature for 60 min. Meanwhile a 10 μM solution of Ionomycin in assay buffer (additionally containing 0.05% fetal calf serum (cf. above); 4° C.) was prepared and stored in the wells of a 96 well microplate (96 well microplate, polypropylene, U-shape (Greiner Bio-One, 650201)). The fluorescence monitoring was performed at 60 measuring points with measurement intervals of 2 sec. After the fifth measuring point, 50 μl of the Ionomycin solution were added to each well of the assay plate to give a final Ionomycin concentration of 2 μM. For the determination of the IC50 values the minimal fluorescence value was subtracted from the maximal fluorescence value for the fifteenth to fifty-fifth measuring points. The calculation of the IC50 values via the percentage inhibitions of Ca^2+ efflux out of cells (forward mode) effected by the test compound was performed in Biost@t Speed 2.0. “NCX1fw IC50” in Table 2 means the IC50 value for inhibition of NCX1 in forward mode (in μM (micromol/liter)).

Sprague-Dawley rats = test: In vivo method for determining the effect on heart contractility (left ventricular dp/dtmax); details: Rattus norvegicus, iv, anesthetized rats, vs solvent control, read-out: Contractility increase (%); for change in vivo at 0.1 mg/kg: i.v. bolus injection 0.1 mg/kg; for change in vivo at 0.3 mg/kg: i.v. bolus injection 0.3 mg/kg; for change in vivo at 1 mg/kg: i.v. bolus injection 1.0 mg/kg
Method: Adult male Sprague-Dawley rats (Harlan Winkelmann, Borchen, Germany) weighing 340 to 370 g were anesthetized with pentobarbital (100 mg/kg i.p.) and ventilated with a mixture of oxygen (40%) and room air (60%) at a tidal volume of 1 ml/100 g at 60 breaths/min. Body temperature was maintained at 36.5±0.3° C. with a heating lamp and was monitored with a rectal thermo sensor. Systemic blood pressure was measured in the left carotid artery using a pressure transducer (Combitrans; B. Braun Melsungen AG, Melsungen, Germany) connected to a DC-bridge-amplifier (PLUGSYS/ADC Type 663; Harvard Apparatus GmbH, March-Hugstetten, Germany). The electrocardiogram was measured as lead II via subcutaneously placed electrodes connected to a Heart-Rate-Module ([…] Type 669; Harvard Apparatus GmbH, March-Hugstetten, Germany). A micro-tip catheter (2 French, SPR-320; Millar Instruments, Houston, Tex., USA) was placed via the right carotid artery into the left ventricle, and the left ventricular pressure (LVP) and the enddiastolic pressure (EDP) were continuously measured. Registration of the hemodynamic data was performed via an analog digital converter by a personal computer using Notocord software (HEM version 3.5). Left ventricular contractility (dp/dtmax) and relaxation (dp/dtmin) were calculated from the LVP signal. For intravenous administration of the test compounds, the left jugular vein was prepared and a PP-50 catheter was inserted. Test compounds were administered either by intravenous bolus injection or by intravenous infusion by means of an infusion pump (Unita; B. Braun Melsungen AG, Melsungen, Germany). […] In a typical experiment, several dosages of the test compound were administered subsequently at increasing doses. Statistical significance of the data obtained with drug vs. control experiments, in which solvent was administered, was evaluated with the 2-sided ANOVA test (program Everstat). Increases in left ventricular contractility (percent increase) by example compounds are given in Table 3 in comparison to control experiments in which solvent was administered.

| Structure (SMILES) | IC50 (human NCX1) [nM] | change in vivo at 0.1 mg/kg (Sprague-Dawley rats) [%] | change in vivo at 0.3 mg/kg (Sprague-Dawley rats) [%] | change in vivo at 1 mg/kg (Sprague-Dawley rats) [%] |
| --- | --- | --- | --- | --- |
| Cc1ccccc1C1CCc2cc(Oc3ncc(C(=O)NCCO)s3)ccc2O1 (centres unmarked) [Example 299, 2-(2-o-Tolyl-chroman-6-yloxy)-thiazole-5-carboxylic acid (2-hydroxy-ethyl)-amide] | 600 | 36 | 62 | 95 |
| Cc1ccccc1C1CCc2cc(Oc3ncc(CNC(=O)c4ccno4)s3)ccc2O1 (centres unmarked) [Example 329, Isoxazole-5-carboxylic acid [2-(2-o-tolyl-chroman-6-yloxy)-thiazol-5-ylmethyl]-amide] | 2500 | 24 | 53 | 101 |
